Experimental findings from patent US11629143B2, “HipK4 inhibitors and uses thereof” (Vibliome Therapeutics, LLC, priority 2020, dated 2023) are described below.

Common to all, as to assay: Kinase panel (mobility shift)
What all share (assay type): biochemical

One assay concerns the target TRKB (Homo sapiens, UniProt Q16620). Summed up: (§1)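 Each kinase was incubated with a fluorescently labeled substrate and compound in a standard reaction mix. After the reaction was stopped, product and substrate were separated on microfluidic chips by electrophoretic mobility shift. Activity came from comparing product and substrate peak fluorescence, graded A (95% or greater), B (90%-94%) or C (80%-89%) at 5 um.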

The next assay addresses T1, MUSK (Homo sapiens, UniProt O15146).
T1 sequence (O15146 24-869): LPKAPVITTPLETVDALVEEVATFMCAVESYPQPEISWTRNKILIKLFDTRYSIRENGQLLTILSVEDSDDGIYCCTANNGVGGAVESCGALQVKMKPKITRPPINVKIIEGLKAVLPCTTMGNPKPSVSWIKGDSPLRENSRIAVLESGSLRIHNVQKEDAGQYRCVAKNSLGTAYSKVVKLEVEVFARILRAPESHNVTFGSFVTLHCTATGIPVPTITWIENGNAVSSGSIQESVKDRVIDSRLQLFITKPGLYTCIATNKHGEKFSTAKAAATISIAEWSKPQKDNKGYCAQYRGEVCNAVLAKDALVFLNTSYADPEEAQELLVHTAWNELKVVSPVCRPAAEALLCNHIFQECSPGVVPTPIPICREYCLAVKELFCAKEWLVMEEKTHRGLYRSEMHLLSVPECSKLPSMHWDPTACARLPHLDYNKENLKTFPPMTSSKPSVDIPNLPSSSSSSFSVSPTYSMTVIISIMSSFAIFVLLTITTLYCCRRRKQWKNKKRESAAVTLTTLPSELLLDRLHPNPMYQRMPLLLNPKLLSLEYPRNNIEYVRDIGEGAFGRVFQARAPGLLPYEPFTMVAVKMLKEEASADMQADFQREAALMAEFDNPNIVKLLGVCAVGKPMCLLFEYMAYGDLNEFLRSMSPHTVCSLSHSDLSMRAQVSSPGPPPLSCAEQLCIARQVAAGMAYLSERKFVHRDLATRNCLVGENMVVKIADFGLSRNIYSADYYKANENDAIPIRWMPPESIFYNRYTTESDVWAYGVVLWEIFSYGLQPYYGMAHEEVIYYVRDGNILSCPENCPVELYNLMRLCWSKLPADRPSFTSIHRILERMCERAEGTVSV
Summed up:
as §1

The target in another assay is T2, EPH-A8 (Homo sapiens, UniProt P29322).
T2 sequence (P29322 28-1005): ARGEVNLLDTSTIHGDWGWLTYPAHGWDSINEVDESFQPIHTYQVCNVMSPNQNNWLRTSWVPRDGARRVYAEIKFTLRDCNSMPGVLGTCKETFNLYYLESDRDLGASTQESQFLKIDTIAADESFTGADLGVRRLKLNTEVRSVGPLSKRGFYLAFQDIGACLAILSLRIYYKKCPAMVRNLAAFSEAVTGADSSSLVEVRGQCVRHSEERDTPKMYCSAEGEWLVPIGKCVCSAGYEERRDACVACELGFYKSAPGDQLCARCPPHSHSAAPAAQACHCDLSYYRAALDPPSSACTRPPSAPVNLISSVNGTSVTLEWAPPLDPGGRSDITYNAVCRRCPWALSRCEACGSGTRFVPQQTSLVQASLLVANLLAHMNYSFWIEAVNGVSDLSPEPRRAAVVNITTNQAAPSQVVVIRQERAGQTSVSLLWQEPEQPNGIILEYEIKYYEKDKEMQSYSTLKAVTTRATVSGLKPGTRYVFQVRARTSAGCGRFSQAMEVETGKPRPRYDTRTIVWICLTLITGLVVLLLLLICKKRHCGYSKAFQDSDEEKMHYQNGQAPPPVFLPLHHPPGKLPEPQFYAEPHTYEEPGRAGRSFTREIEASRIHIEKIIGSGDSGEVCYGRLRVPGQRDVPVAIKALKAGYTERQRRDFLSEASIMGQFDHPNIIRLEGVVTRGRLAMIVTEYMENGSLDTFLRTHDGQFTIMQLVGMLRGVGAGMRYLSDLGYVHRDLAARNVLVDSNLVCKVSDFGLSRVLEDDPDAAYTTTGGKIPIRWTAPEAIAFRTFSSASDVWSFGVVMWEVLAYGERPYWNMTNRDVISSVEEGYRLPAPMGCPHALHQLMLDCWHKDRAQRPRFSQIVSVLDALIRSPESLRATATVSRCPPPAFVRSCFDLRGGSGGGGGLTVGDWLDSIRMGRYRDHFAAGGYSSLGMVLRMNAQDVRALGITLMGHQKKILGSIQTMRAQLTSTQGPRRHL
An outline of the steps: as §1

In the next assay the target is T3, DDR2 (Homo sapiens, UniProt Q16832).
T3 sequence (Q16832 22-855): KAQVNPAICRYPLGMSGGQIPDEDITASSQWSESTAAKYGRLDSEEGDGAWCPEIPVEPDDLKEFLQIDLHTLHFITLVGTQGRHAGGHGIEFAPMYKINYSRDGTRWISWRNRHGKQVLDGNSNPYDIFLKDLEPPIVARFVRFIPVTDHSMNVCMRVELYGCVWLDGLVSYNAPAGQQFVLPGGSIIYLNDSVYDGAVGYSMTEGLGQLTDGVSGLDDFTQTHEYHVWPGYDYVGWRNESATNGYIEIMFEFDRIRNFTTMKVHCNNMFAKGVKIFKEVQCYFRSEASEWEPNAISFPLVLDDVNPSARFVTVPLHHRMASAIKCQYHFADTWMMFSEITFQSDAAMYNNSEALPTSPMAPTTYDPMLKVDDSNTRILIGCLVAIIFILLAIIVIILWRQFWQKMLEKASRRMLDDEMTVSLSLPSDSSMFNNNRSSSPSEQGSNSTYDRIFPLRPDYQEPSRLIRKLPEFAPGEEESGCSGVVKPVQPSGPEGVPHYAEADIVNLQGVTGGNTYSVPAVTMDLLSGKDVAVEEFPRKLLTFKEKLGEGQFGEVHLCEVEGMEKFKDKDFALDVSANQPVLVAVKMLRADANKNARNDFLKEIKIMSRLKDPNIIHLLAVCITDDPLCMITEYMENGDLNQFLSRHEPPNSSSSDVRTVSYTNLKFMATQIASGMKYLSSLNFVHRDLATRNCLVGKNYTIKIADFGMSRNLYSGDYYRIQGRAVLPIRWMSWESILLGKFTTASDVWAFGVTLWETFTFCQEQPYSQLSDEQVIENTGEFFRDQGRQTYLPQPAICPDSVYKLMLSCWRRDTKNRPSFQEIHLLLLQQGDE
An outline of the steps:
as §1

A further assay concerns the target TIE2 (Homo sapiens, UniProt Q02763). An outline of the steps: as §1

Structures are written as SMILES. Where only a bound is given, the exact number is not on record here.

Chain of TIE2 (Q02763 23-1124, species assumed): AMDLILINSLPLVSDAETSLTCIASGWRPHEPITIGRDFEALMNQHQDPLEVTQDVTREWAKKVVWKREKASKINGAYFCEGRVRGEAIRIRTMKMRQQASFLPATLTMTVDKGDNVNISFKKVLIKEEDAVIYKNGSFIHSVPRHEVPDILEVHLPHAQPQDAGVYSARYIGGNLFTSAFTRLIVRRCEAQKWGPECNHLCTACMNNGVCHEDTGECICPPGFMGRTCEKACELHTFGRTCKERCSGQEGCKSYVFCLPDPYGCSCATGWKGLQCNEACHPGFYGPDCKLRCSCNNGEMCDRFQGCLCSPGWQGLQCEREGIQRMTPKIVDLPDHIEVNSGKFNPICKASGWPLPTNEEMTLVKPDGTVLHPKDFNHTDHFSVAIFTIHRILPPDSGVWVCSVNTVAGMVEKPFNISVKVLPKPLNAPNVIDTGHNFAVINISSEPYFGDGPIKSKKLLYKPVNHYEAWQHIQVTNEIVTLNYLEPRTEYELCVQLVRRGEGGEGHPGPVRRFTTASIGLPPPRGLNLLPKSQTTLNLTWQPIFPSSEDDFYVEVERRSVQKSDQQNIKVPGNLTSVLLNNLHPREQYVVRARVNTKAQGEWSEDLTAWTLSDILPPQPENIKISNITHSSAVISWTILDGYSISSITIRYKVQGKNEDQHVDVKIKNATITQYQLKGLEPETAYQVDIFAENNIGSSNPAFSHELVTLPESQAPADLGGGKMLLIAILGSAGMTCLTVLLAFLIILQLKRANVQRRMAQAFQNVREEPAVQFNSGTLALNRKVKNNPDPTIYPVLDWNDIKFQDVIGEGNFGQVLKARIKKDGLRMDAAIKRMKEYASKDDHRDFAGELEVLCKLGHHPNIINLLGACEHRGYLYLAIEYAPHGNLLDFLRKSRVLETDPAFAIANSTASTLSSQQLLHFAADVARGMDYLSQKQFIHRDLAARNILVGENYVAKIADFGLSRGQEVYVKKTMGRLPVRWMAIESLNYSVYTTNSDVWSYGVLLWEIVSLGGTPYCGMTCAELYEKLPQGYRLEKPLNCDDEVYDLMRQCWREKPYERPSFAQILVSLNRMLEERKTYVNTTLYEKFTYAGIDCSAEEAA
Chain of TRKB (Q16620 32-822, species assumed): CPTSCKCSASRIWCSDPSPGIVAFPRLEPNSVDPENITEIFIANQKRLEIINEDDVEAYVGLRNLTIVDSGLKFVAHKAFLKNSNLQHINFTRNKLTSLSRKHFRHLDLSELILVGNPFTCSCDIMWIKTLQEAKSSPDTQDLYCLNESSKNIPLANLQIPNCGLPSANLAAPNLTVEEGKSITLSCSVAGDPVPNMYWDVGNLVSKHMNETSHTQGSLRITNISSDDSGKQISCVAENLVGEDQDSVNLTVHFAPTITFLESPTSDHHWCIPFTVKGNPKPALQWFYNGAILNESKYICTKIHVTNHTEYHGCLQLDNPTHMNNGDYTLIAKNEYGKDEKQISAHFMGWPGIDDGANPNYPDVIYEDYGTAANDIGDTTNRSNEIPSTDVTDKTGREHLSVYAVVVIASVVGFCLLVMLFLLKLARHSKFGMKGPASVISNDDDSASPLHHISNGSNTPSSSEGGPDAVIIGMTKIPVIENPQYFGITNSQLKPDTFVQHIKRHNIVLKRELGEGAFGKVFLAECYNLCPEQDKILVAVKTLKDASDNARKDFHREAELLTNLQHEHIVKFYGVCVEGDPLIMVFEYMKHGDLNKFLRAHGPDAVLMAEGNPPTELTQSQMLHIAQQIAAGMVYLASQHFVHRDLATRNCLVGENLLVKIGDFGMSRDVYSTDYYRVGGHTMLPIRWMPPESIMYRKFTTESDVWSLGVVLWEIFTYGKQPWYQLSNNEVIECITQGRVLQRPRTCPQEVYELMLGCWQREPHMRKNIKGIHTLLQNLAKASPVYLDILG

As for `CNC(=O)c1cc(Oc2ccc(NC(=O)c3nc(OC)oc3-c3ccc(F)c(F)c3)cc2F)ccn1` [Compound 24], the inhibition at 5 µM is under 50% at TRKB; under 50% at MUSK; 50 to 79% at EPH-A8; 80 to 89% on DDR2; under 50% at TIE2.

For `CNC(=O)c1cc(Oc2ccc(NC(=O)c3nc(OC)oc3-c3ccc(F)s3)cc2F)ccn1` [Compound 25], the inhibition at 5 µM at TRKB is under 50%; at MUSK, under 50%; on EPH-A8, under 50%; on DDR2, 50 to 79%; at TIE2, under 50%.

For `CNC(=O)c1cc(Oc2ccc(NC(=O)c3nc(C4CC4)oc3-c3ccc(F)cc3)cc2F)ccn1` [Compound 26], the inhibition at 5 µM was in the range of 50 to 79% on TRKB; 80 to 89% at MUSK; 80 to 89% on EPH-A8; 80 to 89% at DDR2; 80 to 89% at TIE2.

Regarding `CSc1nc(C(=O)Nc2ccc(Oc3ccnc(C(=O)NC4CNC4)c3)c(F)c2)c(-c2ccc(F)s2)o1` [Compound 27], the inhibition at 5 µM on TRKB, on MUSK, at EPH-A8, on DDR2 and on TIE2 was under 50% throughout.

Turning to `CSc1nc(C(=O)Nc2ccc(Oc3ccnc(C(=O)NC4COC4)c3)c(F)c2)c(-c2ccc(F)s2)o1` [Compound 28], the inhibition at 5 µM on TRKB, on MUSK, on EPH-A8, at DDR2 and on TIE2 was under 50% in each case.

For `CSc1nc(C(=O)Nc2ccc(Oc3ccnc(C(=O)NC4CNC4)c3)c(F)c2)c(-c2ccc(F)cc2)o1` [Compound 29], the inhibition at 5 µM on TRKB is under 50%; at MUSK, under 50%; on EPH-A8, 50 to 79%; at DDR2, 50 to 79%; at TIE2, under 50%.

In the case of `CNC(=O)c1cc(Oc2ccc(NC(=O)c3nc(COC)oc3-c3ccc(F)cc3)cc2F)ccn1` [Compound 30], the inhibition at 5 µM lay within 80 to 89% on TRKB; 80 to 89% on MUSK; 90 to 94% on EPH-A8; 90 to 94% at DDR2; 80 to 89% on TIE2.

As to `CSc1nc(C(=O)Nc2ccc(Oc3ccnc(C(=O)NC4COC4)c3)c(F)c2)c(-c2ccc(F)cc2)o1` [Compound 31], the inhibition at 5 µM on TRKB is under 50%; on MUSK, under 50%; at EPH-A8 it was under 50%; at DDR2, 50 to 79%; at TIE2, under 50%.

As for `CNC(=O)c1cc(Oc2ccc(NC(=O)c3nc(OC4CC4)oc3-c3ccc(F)cc3)cc2F)ccn1` [Compound 32], the inhibition at 5 µM at TRKB was under 50%; at MUSK it was under 50%; at EPH-A8, 80 to 89%; on DDR2, 80 to 89%; on TIE2, 50 to 79%.

In the case of `[2H]C([2H])([2H])NC(=O)c1cc(Oc2ccc(NC(=O)c3nc(SC)oc3-c3ccc(F)c(F)c3)cc2F)ccn1` [Compound 33], the inhibition at 5 µM at TRKB was under 50%; at MUSK it was under 50%; at EPH-A8, under 50%; at DDR2, 80 to 89%; on TIE2, under 50%.

As to `CNC(=O)c1cc(Oc2ccc(NC(=O)c3nc(SC(C)C)oc3-c3ccc(F)cc3)cc2F)ccn1` [Compound 34], the inhibition at 5 µM at TRKB was 50 to 79%; on MUSK, under 50%; on EPH-A8 it was 80 to 89%; at DDR2, 50 to 79%; on TIE2, 80 to 89%.

`[2H]C([2H])([2H])NC(=O)c1cc(Oc2ccc(NC(=O)c3nc(SC)oc3-c3ccc(F)s3)cc2F)ccn1` [Compound 35]: the inhibition at 5 µM at TRKB is under 50%; on MUSK it was under 50%; on EPH-A8 it was under 50%; at DDR2, 50 to 79%; on TIE2, under 50%.

Take `CNC(=O)c1ccc(Oc2ccc(NC(=O)c3nc(Cl)oc3-c3ccc(F)cc3)c(F)c2)cn1` [Compound 36]: the inhibition at 5 µM on TRKB, on MUSK, at EPH-A8, at DDR2 and at TIE2 was under 50% throughout.

Regarding `CSc1nc(C(=O)Nc2ccc(Oc3ccnc(C(=O)NC4COC4)c3)c(F)c2)c(-c2ccc(F)c(F)c2)o1` [Compound 37], the inhibition at 5 µM at TRKB, on MUSK, on EPH-A8, at DDR2 and at TIE2 was under 50% in each case.

`CNC(=O)c1cc(Oc2ccc(NC(=O)c3nc(OCC(F)(F)F)oc3-c3ccc(F)cc3)cc2F)ccn1` [Compound 38]: the inhibition at 5 µM on TRKB is under 50%; at MUSK, under 50%; on EPH-A8 it was 50 to 79%; on DDR2, 50 to 79%; at TIE2 it was 50 to 79%.

As to `COc1nc(C(=O)Nc2ccc(Oc3ccnc(C(=O)NC4COC4)c3)c(F)c2)c(-c2ccc(F)cc2)o1` [Compound 39], the inhibition at 5 µM on TRKB is under 50%; at MUSK it was under 50%; at EPH-A8 it was under 50%; on DDR2, 50 to 79%; on TIE2, under 50%.

Regarding `CSc1nc(C(=O)Nc2ccc(Oc3ccnc(C(=O)NCC(F)(F)F)c3)c(F)c2)c(-c2ccc(F)cc2)o1` [Compound 40], the inhibition at 5 µM on TRKB is under 50%; at MUSK, under 50%; on EPH-A8, under 50%; on DDR2, 50 to 79%; at TIE2, under 50%.
